{
  "source": "paper PMC7714403",
  "about": "(JCI Insight, 2020)",
  "key": {"ABL1": {"target": "T1, ABL1 (Homo sapiens, UniProt P00519)", "T1 construct": "purchased Eurofins DiscoverX", "assay": "KdELECT binding assay"}, "OCI-AML3-Luc+ cells": {"test_system": "OCI-AML3-Luc+ cells", "assay": "OCI-AML3-Luc+ xenograft model", "type": "in vivo, NSG mice", "experimental": "Engraftment and growth of leukemic cells were monitored by noninvasive bioluminescence imaging in cell line xenograft models, as previously done ([47]). Details on the cell engraftment and dosing in mouse models are provided in the Supplemental Methods.\nLuc+ or MOLM13-Res -Luc+ cells, 0.5 million OCI-AML3 -Luc+ cells, and 10,000 Ba/F3-FLT3-ITD/F691L-GFP+ cells. Weekly tumor engraftment of cell line xenograft models were assessed after injection of D-luciferin (150mg/kg i.p.; Gold Biotechnology, Inc, St. Louis, MO) on Xenogen IVIS-200 imaging system (Perkin Elmer, Waltham, MA) or GFP monitoring by peripheral blood via BD LSR II flow cytometer (BD Biosciences, San Jose, CA). Signal intensity was analyzed using Living Image Software (PerkinElmer) or FlowJo v10.0.08 software (FlowJo, LLC, Ashland, OR). Mice were randomized to treatment groups based on signal intensity and leukemia burden. Drug treatments were started on days 3, 7, or 13 after cell injection in OCI-AML3, MOLM13, and MOLM13-Res xenografts, respectively. […]\nAll mice were observed daily and humanely euthanized when showing signs of progressive disease including, hind limb paralysis, weight loss more than 20%, and lethargy. All animal studies were approved by the OSU Institutional Animal Care and Use Committee. […]\nCells were then fixed on ice with ice-cold 70% ethanol for 30 minutes . Cells were either stored at -20°C for up to 1 month or processed immediately. Cells were spun down at 450 x g for 10 minutes and stained"}, "[1]": {"test_system": "phospho-FLT3 and phospho-STAT5 in Ba/F3-FLT3-ITD/F691L cells", "assay": "Western blot, signaling inhibition", "type": "cell-based, mouse", "settings": "increasing concentrations, 1 hour", "experimental": "MOM13 cells were serum starved (RPMI plus 0.5% FBS) for 18–24 hours prior to start of drug treatment. For other cells, they were not serum starved. Drug treatments were carried out for 1 or 4 hours, at which time cells were lysed with Cell Lysis buffer (CST) or RIPA buffer (CST) supplemented with protease and phosphatase inhibitors. […] Western blots were developed with either Signal Fire ECL reagent (CST) or SuperSignal West Femto Maximum Sensitivity Substrate (Invitrogen) using Film or Odyssey FC Imaging System (LI-COR Biosciences). Western blots were repeated in 2–3 biological replicate experiments."}, "CDK5": {"target": "CDK5 (Homo sapiens, UniProt Q00535)", "sequence (Q00535 whole entry)": "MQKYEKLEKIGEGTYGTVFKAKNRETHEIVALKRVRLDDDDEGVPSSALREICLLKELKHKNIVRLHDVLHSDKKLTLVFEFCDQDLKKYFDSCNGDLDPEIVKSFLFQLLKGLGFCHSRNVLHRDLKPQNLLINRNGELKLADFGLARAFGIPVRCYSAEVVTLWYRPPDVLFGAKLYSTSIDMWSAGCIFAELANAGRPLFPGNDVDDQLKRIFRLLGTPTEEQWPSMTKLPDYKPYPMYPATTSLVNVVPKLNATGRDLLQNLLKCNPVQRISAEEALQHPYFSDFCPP", "assay": "KiNativ, MOLM13 live cells", "type": "cell-based", "settings": "MOLM-13, 2 h, 100 nM", "experimental": "(§1) Samples were analyzed by KiNativ in situ kinase profiling by ActivX Biosciences."}, "CSK": {"target": "CSK (Homo sapiens, UniProt P41240)", "sequence (P41240 whole entry)": "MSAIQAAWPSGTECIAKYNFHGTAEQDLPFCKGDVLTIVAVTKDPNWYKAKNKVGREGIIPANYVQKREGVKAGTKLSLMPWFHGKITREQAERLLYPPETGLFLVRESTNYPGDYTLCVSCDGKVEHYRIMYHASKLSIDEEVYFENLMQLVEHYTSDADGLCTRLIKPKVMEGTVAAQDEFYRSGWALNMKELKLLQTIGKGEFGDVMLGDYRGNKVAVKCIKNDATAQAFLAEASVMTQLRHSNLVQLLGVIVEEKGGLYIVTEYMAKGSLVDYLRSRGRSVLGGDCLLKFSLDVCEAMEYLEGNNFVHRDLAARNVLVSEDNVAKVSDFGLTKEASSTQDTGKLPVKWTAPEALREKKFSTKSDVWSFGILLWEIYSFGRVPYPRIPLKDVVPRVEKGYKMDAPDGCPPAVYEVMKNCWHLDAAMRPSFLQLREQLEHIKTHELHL", "assay": "KiNativ, MOLM13 live cells", "type": "cell-based", "settings": "100 nM, 2 hours; Activation Loop", "experimental": "as §1"}, "CaMK1a": {"target": "CaMK1a (Homo sapiens, UniProt Q14012)", "assay": "KiNativ, MOLM13 live cells", "type": "cell-based", "settings": "MOLM-13; 100 nM, 2 hours; Lys1; read-out: Inhibition vs DMSO", "experimental": "as §1"}, "IRAK1": {"target": "IRAK1 (Homo sapiens, UniProt P51617)", "assay": "KiNativ, MOLM13 live cells", "type": "cell-based", "settings": "MOLM-13; 100 nM, 2 hours; Lys2; read-out: Inhibition vs DMSO", "experimental": "as §1"}, "MLK3": {"target": "MLK3 (Homo sapiens, UniProt Q16584)", "assay": "KiNativ, MOLM13 live cells", "type": "cell-based", "settings": "100 nM, 2 hours; Lys2", "experimental": "as §1"}, "PIK3CG": {"target": "PIK3CG (Homo sapiens, UniProt P48736)", "assay": "KiNativ, MOLM13 live cells", "type": "cell-based", "settings": "MOLM-13; 100 nM, 2 hours; ATP; read-out: Inhibition vs DMSO", "experimental": "as §1"}, "RSK2 domain1": {"target": "T2, RSK2 domain1 (Homo sapiens, UniProt P51812)", "T2 construct": "RSK2 domain1", "T2 sequence (P51812 whole entry, the tested form may be a part)": "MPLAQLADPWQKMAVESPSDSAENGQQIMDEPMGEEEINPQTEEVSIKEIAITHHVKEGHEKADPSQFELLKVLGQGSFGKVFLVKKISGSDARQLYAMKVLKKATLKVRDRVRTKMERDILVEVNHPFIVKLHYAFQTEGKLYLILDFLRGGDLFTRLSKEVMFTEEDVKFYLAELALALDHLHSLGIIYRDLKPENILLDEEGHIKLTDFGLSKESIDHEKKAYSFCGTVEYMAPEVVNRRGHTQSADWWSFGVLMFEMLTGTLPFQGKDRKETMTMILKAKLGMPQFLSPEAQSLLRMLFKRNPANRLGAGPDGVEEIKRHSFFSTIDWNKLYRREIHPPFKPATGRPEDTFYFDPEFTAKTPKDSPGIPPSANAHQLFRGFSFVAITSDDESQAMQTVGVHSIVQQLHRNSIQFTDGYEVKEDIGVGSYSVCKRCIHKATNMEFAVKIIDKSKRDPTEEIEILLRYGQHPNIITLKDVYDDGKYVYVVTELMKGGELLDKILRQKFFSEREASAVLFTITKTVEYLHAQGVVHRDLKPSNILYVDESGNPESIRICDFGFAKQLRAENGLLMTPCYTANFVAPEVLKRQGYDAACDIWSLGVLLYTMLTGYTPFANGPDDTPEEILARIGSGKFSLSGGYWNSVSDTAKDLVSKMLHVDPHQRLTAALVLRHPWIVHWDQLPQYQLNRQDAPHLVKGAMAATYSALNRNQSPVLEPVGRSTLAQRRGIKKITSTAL", "assay": "KiNativ, MOLM13 live cells", "type": "cell-based", "settings": "MOLM-13, 2 h, 100 nM", "experimental": "as §1"}, "ARAF": {"target": "ARAF (Homo sapiens, UniProt P10398)", "assay": "KiNativ, OCI cells live cell", "type": "cell-based", "settings": "2 h, labeling site Lys2, peptide […]"}, "BRAF": {"target": "BRAF (Homo sapiens, UniProt P15056)", "assay": "KiNativ, OCI cells live cell", "type": "cell-based", "settings": "2 h, labeling site Lys2, peptide […]"}, "DGKA": {"target": "DGKA (Homo sapiens, UniProt P23743)", "assay": "KiNativ, OCI cells live cell", "type": "cell-based", "settings": "2 h, labeling site ATP, peptide […]"}, "IKKe, TBK1": {"test_system": "IKKe, TBK1", "assay": "KiNativ, OCI cells live cell", "type": "cell-based, human", "settings": "labeling site Lys2, peptide DIKPGNIMR"}, "JAK1 domain2": {"target": "T3, JAK1 domain2 (Homo sapiens, UniProt P23458)", "T3 construct": "JAK1 domain2", "T3 sequence (P23458 whole entry, the tested form may be a part)": "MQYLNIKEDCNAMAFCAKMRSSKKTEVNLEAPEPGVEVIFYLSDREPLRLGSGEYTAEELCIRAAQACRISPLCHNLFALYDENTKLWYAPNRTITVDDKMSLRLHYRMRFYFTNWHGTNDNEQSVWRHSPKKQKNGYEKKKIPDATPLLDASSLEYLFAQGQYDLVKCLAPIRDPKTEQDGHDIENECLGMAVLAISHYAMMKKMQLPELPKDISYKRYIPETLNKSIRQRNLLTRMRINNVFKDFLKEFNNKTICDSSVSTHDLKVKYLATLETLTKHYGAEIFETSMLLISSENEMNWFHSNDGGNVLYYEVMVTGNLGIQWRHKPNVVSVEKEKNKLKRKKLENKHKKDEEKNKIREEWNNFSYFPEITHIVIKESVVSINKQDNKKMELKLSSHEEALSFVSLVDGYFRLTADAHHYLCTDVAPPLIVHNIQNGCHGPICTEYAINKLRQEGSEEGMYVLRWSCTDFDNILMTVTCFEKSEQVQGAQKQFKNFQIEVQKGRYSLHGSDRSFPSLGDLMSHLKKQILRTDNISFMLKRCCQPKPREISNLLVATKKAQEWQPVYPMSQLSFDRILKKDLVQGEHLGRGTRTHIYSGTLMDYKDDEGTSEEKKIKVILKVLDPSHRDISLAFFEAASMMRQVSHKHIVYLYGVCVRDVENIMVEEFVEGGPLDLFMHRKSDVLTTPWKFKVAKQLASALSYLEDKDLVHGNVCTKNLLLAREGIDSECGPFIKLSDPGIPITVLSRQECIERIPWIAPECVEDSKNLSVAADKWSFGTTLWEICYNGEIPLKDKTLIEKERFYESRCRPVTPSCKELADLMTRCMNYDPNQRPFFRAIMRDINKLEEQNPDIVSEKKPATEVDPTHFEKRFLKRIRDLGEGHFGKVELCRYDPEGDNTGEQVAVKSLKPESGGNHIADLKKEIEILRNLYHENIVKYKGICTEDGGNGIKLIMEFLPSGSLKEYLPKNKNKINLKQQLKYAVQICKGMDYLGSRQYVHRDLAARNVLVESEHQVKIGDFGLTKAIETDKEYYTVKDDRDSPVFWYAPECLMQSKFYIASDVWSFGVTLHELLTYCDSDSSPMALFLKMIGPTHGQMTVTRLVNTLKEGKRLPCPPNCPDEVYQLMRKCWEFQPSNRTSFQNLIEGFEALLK", "assay": "KiNativ, OCI cells live cell", "type": "cell-based"}, "p70S6K": {"target": "p70S6K (Homo sapiens, UniProt P23443)", "assay": "KiNativ, OCI cells live cell", "type": "cell-based", "settings": "2 h, labeling site Lys2, peptide […]"}, "PFTAIRE1": {"target": "PFTAIRE1 (Homo sapiens, UniProt O94921)", "sequence (O94921 whole entry)": "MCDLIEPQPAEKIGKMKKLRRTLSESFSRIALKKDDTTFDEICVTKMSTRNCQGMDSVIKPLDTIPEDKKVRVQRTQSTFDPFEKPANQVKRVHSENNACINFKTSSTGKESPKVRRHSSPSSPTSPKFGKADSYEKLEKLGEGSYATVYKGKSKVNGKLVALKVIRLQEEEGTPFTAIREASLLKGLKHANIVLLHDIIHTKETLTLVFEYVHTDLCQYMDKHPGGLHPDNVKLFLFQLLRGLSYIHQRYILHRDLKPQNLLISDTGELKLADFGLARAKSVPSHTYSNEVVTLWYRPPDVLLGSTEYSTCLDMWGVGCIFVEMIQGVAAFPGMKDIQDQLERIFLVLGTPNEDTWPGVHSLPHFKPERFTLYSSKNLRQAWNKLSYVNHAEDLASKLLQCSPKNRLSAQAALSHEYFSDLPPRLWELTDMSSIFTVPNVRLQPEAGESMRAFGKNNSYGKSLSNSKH", "sequence (Q8ND76 whole entry partner)": "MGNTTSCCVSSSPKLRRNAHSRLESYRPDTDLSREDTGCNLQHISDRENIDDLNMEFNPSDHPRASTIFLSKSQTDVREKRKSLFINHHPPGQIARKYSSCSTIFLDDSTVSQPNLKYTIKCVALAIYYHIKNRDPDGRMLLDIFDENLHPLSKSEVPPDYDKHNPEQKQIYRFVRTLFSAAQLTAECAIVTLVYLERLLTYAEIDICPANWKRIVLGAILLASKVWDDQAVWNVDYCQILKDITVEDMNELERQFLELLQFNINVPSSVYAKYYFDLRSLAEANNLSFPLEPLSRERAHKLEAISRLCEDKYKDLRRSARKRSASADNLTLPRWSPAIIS", "assay": "KiNativ, OCI cells live cell", "type": "cell-based"}, "PI4KB": {"target": "PI4KB (Homo sapiens, UniProt Q9UBF8)", "sequence (Q9UBF8 whole entry)": "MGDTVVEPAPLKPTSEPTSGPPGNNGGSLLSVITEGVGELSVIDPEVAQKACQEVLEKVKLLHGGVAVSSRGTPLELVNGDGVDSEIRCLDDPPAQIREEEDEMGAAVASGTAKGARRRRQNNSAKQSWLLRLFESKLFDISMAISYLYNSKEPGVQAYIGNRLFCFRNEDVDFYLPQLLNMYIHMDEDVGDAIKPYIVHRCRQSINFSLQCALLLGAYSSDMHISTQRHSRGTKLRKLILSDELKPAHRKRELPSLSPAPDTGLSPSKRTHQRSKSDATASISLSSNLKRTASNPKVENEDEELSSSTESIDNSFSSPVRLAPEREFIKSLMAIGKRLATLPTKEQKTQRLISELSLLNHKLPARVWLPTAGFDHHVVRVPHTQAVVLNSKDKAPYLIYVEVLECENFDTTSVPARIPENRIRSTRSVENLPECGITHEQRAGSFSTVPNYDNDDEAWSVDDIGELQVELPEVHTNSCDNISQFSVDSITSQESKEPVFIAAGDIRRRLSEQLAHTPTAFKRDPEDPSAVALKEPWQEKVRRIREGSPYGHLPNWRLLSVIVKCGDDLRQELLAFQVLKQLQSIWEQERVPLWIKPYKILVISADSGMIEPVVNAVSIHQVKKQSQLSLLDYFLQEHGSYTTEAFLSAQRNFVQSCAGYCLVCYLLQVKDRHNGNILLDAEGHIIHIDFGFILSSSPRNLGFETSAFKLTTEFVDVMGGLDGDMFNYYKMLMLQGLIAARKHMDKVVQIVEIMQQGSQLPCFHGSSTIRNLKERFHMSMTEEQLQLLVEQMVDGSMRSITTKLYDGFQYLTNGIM", "assay": "KiNativ, OCI cells live cell", "type": "cell-based", "settings": "2 h, labeling site ATP"}, "PKCa, PKCg": {"test_system": "PKCa, PKCg", "assay": "KiNativ, OCI cells live cell", "type": "cell-based, human", "settings": "labeling site Other, peptide NLIPMDPNGLSDPYVKLK"}, "PRP4": {"target": "PRP4 (Homo sapiens, UniProt Q13523)", "assay": "KiNativ, OCI cells live cell", "type": "cell-based", "settings": "2 h, labeling site Lys2, peptide […]"}, "RSK1 domain1": {"target": "T4, RSK1 domain1 (Homo sapiens, UniProt Q15418)", "T4 construct": "RSK1 domain1", "T4 sequence (Q15418 whole entry, the tested form may be a part)": "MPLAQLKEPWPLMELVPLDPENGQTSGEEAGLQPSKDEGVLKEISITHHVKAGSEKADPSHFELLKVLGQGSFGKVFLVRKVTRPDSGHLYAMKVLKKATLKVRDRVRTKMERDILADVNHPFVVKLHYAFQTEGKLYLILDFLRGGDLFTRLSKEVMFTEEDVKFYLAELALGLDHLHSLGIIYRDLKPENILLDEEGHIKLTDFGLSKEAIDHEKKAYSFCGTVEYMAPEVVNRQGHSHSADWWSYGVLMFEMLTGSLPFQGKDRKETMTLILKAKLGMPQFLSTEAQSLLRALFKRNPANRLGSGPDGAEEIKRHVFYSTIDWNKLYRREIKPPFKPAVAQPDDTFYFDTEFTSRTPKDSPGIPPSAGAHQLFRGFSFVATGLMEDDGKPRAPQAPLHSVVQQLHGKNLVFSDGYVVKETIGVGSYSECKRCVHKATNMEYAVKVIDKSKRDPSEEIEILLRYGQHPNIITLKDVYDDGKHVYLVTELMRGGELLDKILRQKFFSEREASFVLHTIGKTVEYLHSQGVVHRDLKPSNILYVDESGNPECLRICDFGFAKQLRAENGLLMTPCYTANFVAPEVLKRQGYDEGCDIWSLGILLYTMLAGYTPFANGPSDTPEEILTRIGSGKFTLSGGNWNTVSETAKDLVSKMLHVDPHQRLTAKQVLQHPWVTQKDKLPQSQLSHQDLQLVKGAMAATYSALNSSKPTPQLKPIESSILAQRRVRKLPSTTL", "assay": "KiNativ, OCI cells live cell", "type": "cell-based", "settings": "2 h"}, "Wnk1, Wnk2": {"test_system": "Wnk1, Wnk2", "assay": "KiNativ, OCI cells live cell", "type": "cell-based, human", "settings": "labeling site ATP Loop, peptide GSFKTVYK"}, "[2]": {"settings": "50 mg/kg once daily 5 days/week"}, "[3]": {"settings": "Lys2, read-out: Inhibition vs DMSO"}},
  "note": "Like-named read-outs stand apart in the source and are kept apart here.",
  "data": [
    {"smiles": "CN1CCN(Cc2ccc(Nc3ncc(Cl)c(Nc4ccccc4S(=O)(=O)N(C)C)n3)cc2)CC1", "note": "[TP-0903]", "values": [
      {"measurement": "Kd", "setting": "ABL1", "result": "< 5", "unit": "nM"},
      {"measurement": "Outgrowth of leukemia cells (bioluminescence)", "setting": "OCI-AML3-Luc+ cells; [2]", "result": "suppressed the outgrowth of leukemia cells"},
      {"measurement": "Spleen weight at study endpoint (mean ± SD)", "setting": "OCI-AML3-Luc+ cells; [2]", "result": "181 ± 21", "unit": "mg"},
      {"measurement": "Survival prolonged compared with vehicle", "setting": "OCI-AML3-Luc+ cells; 50 mg/kg once daily 5 days/week up to 6 weeks", "result": 9, "unit": "days"},
      {"measurement": "phospho-FLT3 and phospho-STAT5 by immunoblot", "setting": "[1]", "result": "inhibition"},
      {"measurement": "inhibition at 0.1 µM", "setting": "CDK5; Lys1, read-out: Inhibition vs DMSO", "result": 31.9, "unit": "%"},
      {"measurement": "inhibition at 0.1 µM", "setting": "CDK5; [3]", "result": 20.7, "unit": "%"},
      {"measurement": "Inhibition vs DMSO", "setting": "CSK", "result": -5.0, "unit": "%"},
      {"measurement": "inhibition at 0.1 µM", "setting": "CaMK1a", "result": 1.3, "unit": "%"},
      {"measurement": "inhibition at 0.1 µM", "setting": "IRAK1", "result": 43.3, "unit": "%"},
      {"measurement": "Inhibition vs DMSO", "setting": "MLK3", "result": 20.5, "unit": "%"},
      {"measurement": "inhibition at 0.1 µM", "setting": "PIK3CG", "result": -8.5, "unit": "%"},
      {"measurement": "inhibition at 0.1 µM", "setting": "RSK2 domain1; Activation Loop, read-out: Inhibition vs DMSO", "result": 22.7, "unit": "%"},
      {"measurement": "inhibition at 0.1 µM", "setting": "RSK2 domain1; [3]", "result": -0.9, "unit": "%"},
      {"measurement": "inhibition at 0.1 µM", "setting": "ARAF", "result": -0.7, "unit": "%"},
      {"measurement": "inhibition at 0.1 µM", "setting": "BRAF", "result": -3.1, "unit": "%"},
      {"measurement": "inhibition at 0.1 µM", "setting": "DGKA", "result": -41.6, "unit": "%"},
      {"measurement": "Inhibition", "setting": "IKKe, TBK1", "result": 64.1, "unit": "%"},
      {"measurement": "Inhibition", "setting": "JAK1 domain2; labeling site Activation Loop, peptide IGDFGLTKAIETDKEYYTVK", "result": -56.4, "unit": "%"},
      {"measurement": "Inhibition", "setting": "JAK1 domain2; labeling site Lys1, peptide YDPEGDNTGEQVAVKSLKPESGGNHIADLKK", "result": -85.5, "unit": "%"},
      {"measurement": "inhibition at 0.1 µM", "setting": "p70S6K", "result": 6.3, "unit": "%"},
      {"measurement": "Inhibition", "setting": "PFTAIRE1; labeling site Lys1, peptide LVALKVIR", "result": 62.2, "unit": "%"},
      {"measurement": "Inhibition", "setting": "PFTAIRE1; labeling site Lys2, peptide DLKPQNLLISDTGELK", "result": 72.4, "unit": "%"},
      {"measurement": "inhibition at 0.1 µM", "setting": "PI4KB; peptide LLSVIVKCGDDLRQELLAFQVLK", "result": -13.1, "unit": "%"},
      {"measurement": "inhibition at 0.1 µM", "setting": "PI4KB; peptide VPHTQAVVLNSKDK", "result": -23.3, "unit": "%"},
      {"measurement": "Inhibition", "setting": "PKCa, PKCg", "result": -15.0, "unit": "%"},
      {"measurement": "inhibition at 0.1 µM", "setting": "PRP4", "result": -18.7, "unit": "%"},
      {"measurement": "inhibition at 0.1 µM", "setting": "RSK1 domain1; labeling site Activation Loop, peptide LTDFGLSKEAIDHEKK", "result": 44.9, "unit": "%"},
      {"measurement": "inhibition at 0.1 µM", "setting": "RSK1 domain1; labeling site Lys1, peptide KVTRPDSGHLYAMKVLK", "result": 42.9, "unit": "%"},
      {"measurement": "Inhibition", "setting": "Wnk1, Wnk2", "result": -19.4, "unit": "%"}
    ]}
  ]
}
